Reference: US20130012432A1, “Peptides for Treatment of Obesity” (Novo Nordisk A/S, priority 2010, published 2013)
In brackets after ≈: the same amount, converted by molar mass. Positions of bridges follow the written chain, without caps; N, C: chain ends. Non-standard residues stand in square brackets, D forms with d. Residues, ends and D or L forms follow the SMILES beside them. Groups on a side chain read outwards from the residue. *: point of attachment. Palmitoyl(16-(5-tetrazolyl)) = O=C(CCCCCCCCCCCCCCCc1nnn[nH]1)*; Lys(CH2CO2H)2 = N[C@@H](CCCCN(CC(=O)O)CC(=O)O)C(=O)O; X1 = O=C(O)CCCCCCCCCCCCCCCCC(=O)NCCOCCOCCN*; C18 diacid = O=C(O)CCCCCCCCCCCCCCCCC(=O)*; C17 diacid = O=C(O)CCCCCCCCCCCCCCCC(=O)*; C16 diacid = O=C(O)CCCCCCCCCCCCCCC(=O)*; Hyp = O=C(O)[C@@H]1C[C@@H](O)CN1; Orn = NCCC[C@H](N)C(=O)O; Dap = NC[C@H](N)C(=O)O; AEEA = NCCOCCOCC(=O)O

Assay: physchem
Description: From a stock solution in vehicle, either H2O or 10 mM phosphate, containing 1 mg (as weighed) compound per ml, 8-11 aliquots are withdrawn and pH-adjusted individually with HCl/NaOH, to cover the whole pH range.

## CC(=O)N[C@H]1CCC(=O)NCCC[C@@H](C(=O)N2CCC[C@H]2C(=O)N2CCC[C@H]2C(=O)N[C@@H](Cc2c[nH]cn2)C(=O)N[C@@H](CC(=O)O)C(=O)N[C@@H](CCCCN(CC(=O)O)CC(=O)O)C(=O)N[C@@H](CCCCNC(=O)COCCOCCNC(=O)CCCCCCCCCCCCCCCc2nnn[nH]2)C(N)=O)NC(=O)[C@H](Cc2c[nH]c3ccccc23)NC(=O)[C@H](CCCNC(=N)N)NC(=O)[C@@H](Cc2ccccc2)NC(=O)[C@H](Cc2c[nH]cn2)NC1=O [Example 43, Ac-c[Glu-His-D-Phe-Arg-Trp-Orn]-Pro-Pro-His-Asp-Lys(biscarboxymethyl)-Lys[(2-{2-[16-(tetrazol-5-yl)hexadecanoylamino]ethoxy}ethoxy)acetyl]-NH2] (Ac-EH[dF]RW[Orn]PPHD[Lys(CH2CO2H)2]K([AEEA-Palmitoyl(16-(5-tetrazolyl))])-NH2; lactam 1-6)
pH 5.9, Solubility Conc.
  solubility: 27 µM (≈ 58.9 µg/mL)
pH 6.5, Solubility Conc.
  solubility: 75 µM (≈ 164 µg/mL)
pH 6.7, Solubility Conc.
  solubility: 315 µM (≈ 687 µg/mL)
pH 6.8, Solubility Conc.
  solubility: 478 µM (≈ 1040 µg/mL)
pH 7.2, Solubility Conc.
  solubility: 478 µM (≈ 1040 µg/mL)
pH 7.4, Solubility Conc.
  solubility: 506 µM (≈ 1100 µg/mL)
pH 7.7, Solubility Conc.
  solubility: 487 µM (≈ 1060 µg/mL)
pH 7.9, Solubility Conc.
  solubility: 490 µM (≈ 1070 µg/mL)
pH 8.1, Solubility Conc.
  solubility: 493 µM (≈ 1080 µg/mL)

## CC(=O)N[C@H]1CCCNC(=O)C[C@@H](C(=O)N2CCC[C@H]2C(=O)N2CCC[C@H]2C(=O)N[C@@H](Cc2c[nH]cn2)C(=O)N[C@@H](CCC(=O)O)C(=O)N[C@@H](CCCCN(CC(=O)O)CC(=O)O)C(=O)N[C@@H](CCCCNC(=O)COCCOCCNC(=O)CCCCCCCCCCCCCCCCC(=O)O)C(N)=O)NC(=O)[C@H](Cc2c[nH]c3ccccc23)NC(=O)[C@H](CCCNC(=N)N)NC(=O)[C@@H](Cc2ccccc2)NC(=O)[C@H](Cc2c[nH]cn2)NC1=O [Example 46, Ac-c[Orn-His-D-Phe-Arg-Trp-Asp]-Pro-Pro-His-Glu-Lys(biscarboxymethyl)-Lys({2-[2-(17-carboxyheptadecanoylamino)ethoxy]ethoxy}acetyl)-NH2] (Ac-[Orn]H[dF]RWDPPHE[Lys(CH2CO2H)2]K([AEEA-C18 diacid])-NH2; lactam 1-6)
pH 5, Solubility Conc.
  solubility: 25 µM (≈ 54.3 µg/mL)
pH 5.4, Solubility Conc.
  solubility: 24 µM (≈ 52.1 µg/mL)
pH 6.1, Solubility Conc.
  solubility: 47 µM (≈ 102 µg/mL)
pH 6.6, Solubility Conc.
  solubility: 160 µM (≈ 347 µg/mL)
pH 6.7, Solubility Conc.
  solubility: 422 µM (≈ 916 µg/mL)
pH 6.8, Solubility Conc.
  solubility: 471 µM (≈ 1020 µg/mL)
pH 7.1, Solubility Conc.
  solubility: 494 µM (≈ 1070 µg/mL)
pH 7.6, Solubility Conc.
  solubility: 509 µM (≈ 1110 µg/mL)
pH 7.8, Solubility Conc.
  solubility: 507 µM (≈ 1100 µg/mL)

## CC(=O)N[C@H]1CNC(=O)CC[C@@H](C(=O)N2CCC[C@H]2C(=O)N2CCC[C@H]2C(=O)N[C@@H](CCCNC(=N)N)C(=O)N[C@@H](CC(=O)O)C(=O)N[C@@H](CCCCN(CC(=O)O)CC(=O)O)C(=O)N[C@@H](CCCCNC(=O)COCCOCCNC(=O)CCCCCCCCCCCCCCCc2nnn[nH]2)C(N)=O)NC(=O)[C@H](Cc2c[nH]c3ccccc23)NC(=O)[C@H](CCCNC(=N)N)NC(=O)[C@@H](Cc2ccccc2)NC(=O)[C@H](Cc2c[nH]cn2)NC1=O [Example 47, Ac-c[Dap-His-D-Phe-Arg-Trp-Glu]-Pro-Pro-Arg-Asp-Lys(biscarboxymethyl)-Lys[(2-{2-[16-(tetrazol-5-yl)hexadecanoylamino]ethoxy}ethoxy)acetyl]-NH2] (Ac-[Dap]H[dF]RWEPPRD[Lys(CH2CO2H)2]K([AEEA-Palmitoyl(16-(5-tetrazolyl))])-NH2; lactam 1-6)
pH 6.4, Solubility Conc.
  solubility: 24 µM (≈ 52.1 µg/mL)
pH 6.9, Solubility Conc.
  solubility: 56 µM (≈ 122 µg/mL)
pH 7.1, Solubility Conc.
  solubility: 103 µM (≈ 224 µg/mL)
pH 7.2, Solubility Conc.
  solubility: 219 µM (≈ 476 µg/mL)
pH 7.3, Solubility Conc.
  solubility: 366 µM (≈ 795 µg/mL)
pH 7.5, Solubility Conc.
  solubility: 379 µM (≈ 823 µg/mL)
pH 7.6, Solubility Conc.
  solubility: 371 µM (≈ 806 µg/mL)
pH 7.9, Solubility Conc.
  solubility: 493 µM (≈ 1070 µg/mL)

## CC(=O)N[C@H]1CCCNC(=O)C[C@@H](C(=O)N2CCC[C@H]2C(=O)N2CCC[C@H]2C(=O)N[C@@H](CCCNC(=N)N)C(=O)N[C@@H](CCC(=O)O)C(=O)N[C@@H](CCCCN(CC(=O)O)CC(=O)O)C(=O)N[C@@H](CO)C(=O)N[C@@H](CO)C(=O)NCCOCCOCCNC(=O)CCCCCCCCCCCCCCCCC(=O)O)NC(=O)[C@H](Cc2c[nH]c3ccccc23)NC(=O)[C@H](CCCNC(=N)N)NC(=O)[C@@H](Cc2ccccc2)NC(=O)[C@H](Cc2c[nH]cn2)NC1=O [Example 50, Ac-c[Orn-His-D-Phe-Arg-Trp-Asp]-Pro-Pro-Arg-Glu-Lys(biscarboxymethyl)-Ser-Ser-NH(2-{2-[2-(17-carboxyheptadecanoylamino)ethoxy]ethoxy}ethyl)] (Ac-[Orn]H[dF]RWDPPRE[Lys(CH2CO2H)2]SS-X1; lactam 1-6)
pH 6.5, Solubility Conc.
  solubility: 57 µM (≈ 127 µg/mL)
pH 7, Solubility Conc.
  solubility: 92 µM (≈ 204 µg/mL)
pH 7.2, Solubility Conc.
  solubility: 123 µM (≈ 273 µg/mL)
pH 7.4, Solubility Conc.
  solubility: 156 µM (≈ 347 µg/mL)
pH 7.5, Solubility Conc.
  solubility: 176 µM (≈ 391 µg/mL)
pH 7.7, Solubility Conc.
  solubility: 197 µM (≈ 438 µg/mL)
pH 7.8, Solubility Conc.
  solubility: 212 µM (≈ 471 µg/mL)
pH 7.9, Solubility Conc.
  solubility: 208 µM (≈ 462 µg/mL)
pH 8.2, Solubility Conc.
  solubility: 212 µM (≈ 471 µg/mL)

## CC(=O)N[C@H]1CCCNC(=O)C[C@@H](C(=O)N2CCC[C@H]2C(=O)N2CCC[C@H]2C(=O)N[C@@H](Cc2c[nH]cn2)C(=O)N[C@@H](CCC(=O)O)C(=O)N[C@@H](CCCCN(CC(=O)O)CC(=O)O)C(=O)N[C@@H](CCCCNC(=O)COCCOCCNC(=O)CCCCCCCCCCCCCCC(=O)O)C(N)=O)NC(=O)[C@H](Cc2c[nH]c3ccccc23)NC(=O)[C@H](CCCNC(=N)N)NC(=O)[C@@H](Cc2ccccc2)NC(=O)[C@H](Cc2c[nH]cn2)NC1=O [Example 51, Ac-c[Orn-His-D-Phe-Arg-Trp-Asp]-Pro-Pro-His-Glu-Lys(biscarboxymethyl)-Lys({2-[2-(15-carboxypentadecanoylamino)ethoxy]ethoxy}acetyl)-NH2] (Ac-[Orn]H[dF]RWDPPHE[Lys(CH2CO2H)2]K([AEEA-C16 diacid])-NH2; lactam 1-6)
pH 5.3, Solubility Conc.
  solubility: 204 µM (≈ 437 µg/mL)
pH 5.8, Solubility Conc.
  solubility: 280 µM (≈ 600 µg/mL)
pH 6.1, Solubility Conc.
  solubility: 359 µM (≈ 770 µg/mL)
pH 6.4, Solubility Conc.
  solubility: 450 µM (≈ 965 µg/mL)
pH 6.7, Solubility Conc.
  solubility: 460 µM (≈ 986 µg/mL)
pH 7, Solubility Conc.
  solubility: 442 µM (≈ 947 µg/mL)
pH 7.3, Solubility Conc.
  solubility: 468 µM (≈ 1000 µg/mL)
pH 7.6, Solubility Conc.
  solubility: 485 µM (≈ 1040 µg/mL)
pH 7.8, Solubility Conc.
  solubility: 457 µM (≈ 980 µg/mL)

## CC(=O)N[C@H]1CCC(=O)NCCC[C@@H](C(=O)N2CCC[C@H]2C(=O)N2CCC[C@H]2C(=O)N[C@@H](CCCNC(=N)N)C(=O)N[C@@H](CC(=O)O)C(=O)N[C@@H](CCCCN(CC(=O)O)CC(=O)O)C(=O)N[C@@H](CCCCNC(=O)COCCOCCNC(=O)CCCCCCCCCCCCCCCc2nnn[nH]2)C(N)=O)NC(=O)[C@H](Cc2c[nH]c3ccccc23)NC(=O)[C@H](CCCNC(=N)N)NC(=O)[C@@H](Cc2ccccc2)NC(=O)[C@H](Cc2c[nH]cn2)NC1=O [Example 54, Ac-c[Glu-His-D-Phe-Arg-Trp-Orn]-Pro-Pro-Arg-Asp-Lys(biscarboxymethyl)-Lys[(2-{2-[16-(tetrazol-5-yl)hexadecanoylamino]ethoxy}ethoxy)acetyl]-NH2] (Ac-EH[dF]RW[Orn]PPRD[Lys(CH2CO2H)2]K([AEEA-Palmitoyl(16-(5-tetrazolyl))])-NH2; lactam 1-6)
pH 5.5, Solubility Conc.
  solubility: 22 µM (≈ 48.4 µg/mL)
pH 6.2, Solubility Conc.
  solubility: 23 µM (≈ 50.6 µg/mL)
pH 6.8, Solubility Conc.
  solubility: 43 µM (≈ 94.6 µg/mL)
pH 7, Solubility Conc.
  solubility: 78 µM (≈ 172 µg/mL)
pH 7.1, Solubility Conc.
  solubility: 95 µM (≈ 209 µg/mL)
pH 7.4, Solubility Conc.
  solubility: 221 µM (≈ 486 µg/mL)
pH 7.6, Solubility Conc.
  solubility: 202 µM (≈ 445 µg/mL)
pH 7.8, Solubility Conc.
  solubility: 200 µM (≈ 440 µg/mL)
pH 7.9, Solubility Conc.
  solubility: 217 µM (≈ 478 µg/mL)

## CC(=O)N[C@H]1CCCNC(=O)C[C@@H](C(=O)N2CCC[C@H]2C(=O)N2CCC[C@H]2C(=O)N[C@@H](Cc2c[nH]cn2)C(=O)N[C@@H](CCC(=O)O)C(=O)N[C@@H](CCCCN(CC(=O)O)CC(=O)O)C(=O)N[C@@H](CCCCNC(=O)COCCOCCNC(=O)CCCCCCCCCCCCCCCC(=O)O)C(N)=O)NC(=O)[C@H](Cc2c[nH]c3ccccc23)NC(=O)[C@H](CCCNC(=N)N)NC(=O)[C@@H](Cc2ccccc2)NC(=O)[C@H](Cc2c[nH]cn2)NC1=O [Example 55, Ac-c[Orn-His-D-Phe-Arg-Trp-Asp]-Pro-Pro-His-Glu-Lys(biscarboxymethyl)-Lys({2-[2-(16-carboxyhexadecanoylamino)ethoxy]ethoxy}acetyl)-NH2] (Ac-[Orn]H[dF]RWDPPHE[Lys(CH2CO2H)2]K([AEEA-C17 diacid])-NH2; lactam 1-6)
pH 6.3, Solubility Conc.
  solubility: 152 µM (≈ 328 µg/mL)
pH 6.5, Solubility Conc.
  solubility: 236 µM (≈ 509 µg/mL)
pH 6.6, Solubility Conc.
  solubility: 337 µM (≈ 727 µg/mL)
pH 6.7, Solubility Conc.
  solubility: 436 µM (≈ 941 µg/mL)
pH 6.9, Solubility Conc.
  solubility: 426 µM (≈ 919 µg/mL)
pH 7.2, Solubility Conc.
  solubility: 414 µM (≈ 893 µg/mL)
pH 7.6, Solubility Conc.
  solubility: 422 µM (≈ 910 µg/mL)
pH 7.7, Solubility Conc.
  solubility: 435 µM (≈ 939 µg/mL)
pH 8, Solubility Conc.
  solubility: 426 µM (≈ 919 µg/mL)

## CC(=O)N[C@H]1CCC(=O)NCCC[C@@H](C(=O)N2C[C@H](O)C[C@H]2C(=O)N2C[C@H](O)C[C@H]2C(=O)N[C@@H](CCCNC(=N)N)C(=O)N[C@@H](CC(=O)O)C(=O)N[C@@H](CCCCN(CC(=O)O)CC(=O)O)C(=O)N[C@@H](CCCCNC(=O)COCCOCCNC(=O)CCCCCCCCCCCCCCCc2nnn[nH]2)C(N)=O)NC(=O)[C@H](Cc2c[nH]c3ccccc23)NC(=O)[C@H](CCCNC(=N)N)NC(=O)[C@@H](Cc2ccccc2)NC(=O)[C@H](Cc2c[nH]cn2)NC1=O [Example 56, Ac-c[Glu-His-D-Phe-Arg-Trp-Orn]-Hyp-Hyp-Arg-Asp-Lys(biscarboxymethyl)-Lys[(2-{2-[16-(tetrazol-5-yl)hexadecanoylamino]ethoxy}ethoxy)acetyl]-NH2] (Ac-EH[dF]RW[Orn][Hyp][Hyp]RD[Lys(CH2CO2H)2]K([AEEA-Palmitoyl(16-(5-tetrazolyl))])-NH2; lactam 1-6)
pH 6.8, Solubility Conc.
  solubility: 47 µM (≈ 105 µg/mL)
pH 7.1, Solubility Conc.
  solubility: 79 µM (≈ 176 µg/mL)
pH 7.4, Solubility Conc.
  solubility: 169 µM (≈ 377 µg/mL)
pH 7.5, Solubility Conc.
  solubility: 395 µM (≈ 882 µg/mL)
pH 7.6, Solubility Conc.
  solubility: 521 µM (≈ 1160 µg/mL)
pH 7.7, Solubility Conc.
  solubility: 408 µM (≈ 911 µg/mL)
pH 7.8, Solubility Conc.
  solubility: 524 µM (≈ 1170 µg/mL)
pH 8, Solubility Conc.
  solubility: 392 µM (≈ 875 µg/mL)
